Measurements taken from article PMC10287695, “Non-covalent inhibitors of thioredoxin glutathione reductase with schistosomicidal activity in vivo” (Nature Communications, 2023).
Several values for one entry are separate records, joined by “and”; a condition that tells them apart may be missing. Equal entries are not always repeated.

Legend:
[1] = molecular target: BmTrxR (Brugia malayi, UniProt A0A1I9G0T9); test: B. malayi TrxR enzyme inhibition; format: biochemical
Procedure: Recombinant TGR, human TrxR1, B. malayi (Bm)TrxR and human GR proteins were expressed and purified as described[20],[69],[79]. The codon optimized sequence for P. falciparum (PfTrxR, https://www.ncbi.nlm.nih.gov/protein/CAA60574.1/) with an N-terminal 6-His tag was synthesized and inserted into pET15b (GenScript) and expressed in BL21 (DE3) cells and purified as described for human GR[20]. […] The reaction was started with addition of an equal volume of DTNB (6 mM) and NADPH (100 µM) and the increase in A412 during the first 3 min was recorded. […] Activity was initiated with the addition of 1 mM GSSG and 100 μM NADPH and initial rates of NADPH oxidation were monitored at 340 nm. The reactions were done in triplicate. The IC50 was calculated in GraphPad Prism.

[2] = test system: S. mansoni adult worms; test: GSH/GSSG ratio in ex vivo adult worms; format: cell-based; settings: 1 hr; second data set (r136-144), baseline 63.5617, DMSO 63.4928
Procedure: We assessed GSH/GSSG levels experimentally by treating S. mansoni adult worms with 50 µM of compounds, or respective controls 5 µM Auranofin, 50 µM PZQ or 50 µM MZM and 0.01% DMSO for 3 h. Worm homogenate was prepared by washing three times with PBS to remove residual compounds and ten volumes of ice cold 5% sulfosalicylic acid was added. Worms were manually homogenized on ice using VWR Pellet Mixer Adaptor. The worm suspension was centrifuged at 14000 × g, 4 °C for 10 min and the acid supernatants transferred. An equal volume of ice-cold neutralization buffer (500 mM HEPES, pH 8.0) was added to the acid supernatants.
GSH/GSSG assay was performed by diluting the acid supernatant (5-fold) with ice-cold dilution buffer (250 mM HEPES, pH 7.5). Using white opaque luminescence plate on ice, 25 µl of the diluted worm acid supernatant was added each well in triplicates. Total glutathione lysis reagent and GSSG lysis reagent, which contains alkylating agent N-ethylmaleimide (25 mM) were prepared following manufactures protocol and added to respective wells along with blank for background. Total glutathione lysis reagent or oxidized glutathione lysis reagent (25 µl) was added to respective wells containing worm acid supernatants and the plate was shaken for 5 min. Luciferin generation reagent (LGR) (50 µl) was added to all wells, briefly shaken and incubated at room temperature for 30 min. Luciferin detection reagent (LDR) (100 µl) was added to all wells, briefly shaken and incubated for 15 min at room temperature and the luminescence measured using microplate imager (BioTek Cytation3). GSH/GSSH ratio for DMSO control and compounds were calculated using (Net DMSO total glutathione RFU) – (Net DMSO GSSG RFU)/ (Net DMSO GSSG RFU)/2 and (Net inhibitor total glutathione RFU) – (Net inhibitor GSSG RFU)/ (Net inhibitor GSSG RFU)/2 respectively.

[3] = molecular target: T1, Human GR (Homo sapiens, UniProt P00390); test: Human GR enzyme inhibition (GSSG reduction, NADPH oxidation); format: biochemical; settings: 66.7 µM
T1 construct: made in house
T1 sequence (P00390 44-522): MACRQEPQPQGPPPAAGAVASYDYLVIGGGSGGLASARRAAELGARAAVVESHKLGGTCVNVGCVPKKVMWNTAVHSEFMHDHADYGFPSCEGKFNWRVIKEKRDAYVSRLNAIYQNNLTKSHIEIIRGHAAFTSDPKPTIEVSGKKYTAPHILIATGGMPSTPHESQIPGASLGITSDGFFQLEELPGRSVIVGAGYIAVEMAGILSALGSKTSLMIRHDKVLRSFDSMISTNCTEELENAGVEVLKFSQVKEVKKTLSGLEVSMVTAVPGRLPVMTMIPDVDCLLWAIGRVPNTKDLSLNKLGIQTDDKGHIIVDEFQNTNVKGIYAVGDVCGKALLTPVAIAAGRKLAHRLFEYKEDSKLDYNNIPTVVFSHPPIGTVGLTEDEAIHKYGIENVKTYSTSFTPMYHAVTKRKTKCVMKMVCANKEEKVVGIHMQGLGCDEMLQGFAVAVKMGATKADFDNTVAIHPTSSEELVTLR
Procedure: Recombinant TGR, human TrxR1, B. malayi (Bm)TrxR and human GR proteins were expressed and purified as described[20],[69],[79]. The codon optimized sequence for P. falciparum (PfTrxR, https://www.ncbi.nlm.nih.gov/protein/CAA60574.1/) with an N-terminal 6-His tag was synthesized and inserted into pET15b (GenScript) and expressed in BL21 (DE3) cells and purified as described for human GR[20]. TGR and TrxR enzyme inhibition assays were performed in triplicate at 25 °C as described[20] in 0.1 M potassium phosphate (pH 7.4), 10 mM EDTA, 100 µM NADPH and 0.01% Tween-20. TGR, human TrxR1 and BmTrxR (all at 4 nM) and PfTrxR (50 nM) were preincubated with the compounds for 15 min. The reaction was started with addition of an equal volume of DTNB (6 mM) and NADPH (100 µM) and the increase in A412 during the first 3 min was recorded. […] […] Activity was initiated with the addition of 1 mM GSSG and 100 μM NADPH and initial rates of NADPH oxidation were monitored at 340 nm. The reactions were done in triplicate. The IC50 was calculated in GraphPad Prism.

[4] = molecular target: T2, PfTrxR (Plasmodium falciparum, UniProt Q25861); test: P. falciparum TrxR enzyme inhibition; format: biochemical
T2 construct: 6-His (N); made in house; host or cells: E. coli BL21 (DE3)
T2 sequence (Q25861 1-541): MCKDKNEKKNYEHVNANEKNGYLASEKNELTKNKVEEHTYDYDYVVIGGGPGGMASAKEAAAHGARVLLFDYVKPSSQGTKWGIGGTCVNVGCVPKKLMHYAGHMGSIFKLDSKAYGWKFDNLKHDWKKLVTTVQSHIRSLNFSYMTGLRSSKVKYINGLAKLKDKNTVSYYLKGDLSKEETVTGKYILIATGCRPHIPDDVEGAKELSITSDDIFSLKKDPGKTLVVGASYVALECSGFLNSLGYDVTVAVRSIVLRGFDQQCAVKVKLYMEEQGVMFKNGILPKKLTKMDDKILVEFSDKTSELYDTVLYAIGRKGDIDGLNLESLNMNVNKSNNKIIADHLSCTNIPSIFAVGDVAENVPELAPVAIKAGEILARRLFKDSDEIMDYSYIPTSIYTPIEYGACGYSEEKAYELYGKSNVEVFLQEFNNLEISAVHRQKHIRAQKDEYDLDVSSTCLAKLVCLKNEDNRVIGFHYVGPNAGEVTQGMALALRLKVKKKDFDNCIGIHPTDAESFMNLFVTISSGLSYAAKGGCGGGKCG
Procedure: Recombinant TGR, human TrxR1, B. malayi (Bm)TrxR and human GR proteins were expressed and purified as described[20],[69],[79]. The codon optimized sequence for P. falciparum (PfTrxR, https://www.ncbi.nlm.nih.gov/protein/CAA60574.1/) with an N-terminal 6-His tag was synthesized and inserted into pET15b (GenScript) and expressed in BL21 (DE3) cells and purified as described for human GR[20]. TGR and TrxR enzyme inhibition assays were performed in triplicate at 25 °C as described[20] in 0.1 M potassium phosphate (pH 7.4), 10 mM EDTA, 100 µM NADPH and 0.01% Tween-20. TGR, human TrxR1 and BmTrxR (all at 4 nM) and PfTrxR (50 nM) were preincubated with the compounds for 15 min. The reaction was started with addition of an equal volume of DTNB (6 mM) and NADPH (100 µM) and the increase in A412 during the first 3 min was recorded. […] The reaction was preincubated for 15 min. Activity was initiated with the addition of 1 mM GSSG and 100 μM NADPH and initial rates of NADPH oxidation were monitored at 340 nm. The reactions were done in triplicate. The IC50 was calculated in GraphPad Prism.

[5] = molecular target: T3, TGR (Schistosoma mansoni, UniProt Q962Y6, X597U); test: NADPH consumption (oxidase activity); format: biochemical, S. mansoni
T3 construct: made in house
Procedure: TRi-1, Stattic (both at 50 µM) and AF (20 µM) were incubated with 1 ml of 500 nM TGR and 100 µM NADPH in TGR reaction buffer for 30 min. The samples were desalted using a Zeba spin desalting column (Thermo Fisher Scientific) and 100 µl of the desalted sample was combined with 100 µl of 100 µM NADPH. NADPH consumption was monitored at 340 nm in triplicate. Compounds 1, 4, 6, and 7 (50 µM) were tested in the same fashion without the desalting step and with a first incubation step of 30 min for 6 and 7 and 2 h for 1 and 4.

[6] = molecular target: T3, TGR; test: Superoxide production (pyrogallol red); format: biochemical, S. mansoni; settings: replicates
Procedure: The production of superoxide by TGR was determined by monitoring reaction of superoxide with pyrogallol red[80]. Briefly, a 1 ml reaction mix (500 nM TGR, 100 µM NADPH, and 20–50 µM inhibitor) was incubated at room temperature for 30 min for fast inhibitors, or 2 h for slow inhibitors. For irreversible inhibitor controls TRi-1 (synthesized in house as reported[45]), Stattic (Cayman Chemical), and AF (Cayman Chemical), the samples were desalted using a Zeba spin desalting column. 100 µL of sample was combined with pyrogallol buffer with and without superoxide dismutase (SOD) (50 µM pyrogallol red, 300 µM NADPH; ± 10 units SOD). The reaction was measured at A340 and A540 simultaneously for 2 h.

[7] = molecular target: T4, TGR (Schistosoma mansoni, UniProt Q962Y6); test: Reversibility by jump dilution; format: biochemical
T4 construct: made in house
T4 sequence (Q962Y6 1-598): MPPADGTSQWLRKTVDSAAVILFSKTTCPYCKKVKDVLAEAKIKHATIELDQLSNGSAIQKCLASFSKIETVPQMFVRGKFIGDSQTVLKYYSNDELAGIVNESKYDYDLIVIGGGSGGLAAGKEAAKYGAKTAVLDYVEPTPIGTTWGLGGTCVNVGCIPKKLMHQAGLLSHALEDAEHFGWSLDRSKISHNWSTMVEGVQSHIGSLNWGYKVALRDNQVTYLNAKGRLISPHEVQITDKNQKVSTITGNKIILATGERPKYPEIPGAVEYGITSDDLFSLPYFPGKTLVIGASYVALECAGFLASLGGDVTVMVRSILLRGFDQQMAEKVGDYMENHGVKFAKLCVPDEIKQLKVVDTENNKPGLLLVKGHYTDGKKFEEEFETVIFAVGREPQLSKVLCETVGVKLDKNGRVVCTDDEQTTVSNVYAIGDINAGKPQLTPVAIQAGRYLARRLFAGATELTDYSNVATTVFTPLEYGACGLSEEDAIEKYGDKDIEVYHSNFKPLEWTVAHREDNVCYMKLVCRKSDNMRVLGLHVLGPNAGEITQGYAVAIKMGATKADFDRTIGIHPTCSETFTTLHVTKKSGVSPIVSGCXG
Procedure: A reaction of 370 nM TGR, 100 µM NADPH, and 250 µM inhibitor was incubated for 15 min at room temperature. A 100x dilution of the reaction was made and the activity was determined immediately and after 60 min.

[8] = D0: diluted 1:100, activity determined immediately, list for plotting
[9] = D60: diluted 1:100, activity determined after 60 min, list for plotting

Chain of BmTrxR (A0A1I9G0T9 entry or part of it, added parts left off): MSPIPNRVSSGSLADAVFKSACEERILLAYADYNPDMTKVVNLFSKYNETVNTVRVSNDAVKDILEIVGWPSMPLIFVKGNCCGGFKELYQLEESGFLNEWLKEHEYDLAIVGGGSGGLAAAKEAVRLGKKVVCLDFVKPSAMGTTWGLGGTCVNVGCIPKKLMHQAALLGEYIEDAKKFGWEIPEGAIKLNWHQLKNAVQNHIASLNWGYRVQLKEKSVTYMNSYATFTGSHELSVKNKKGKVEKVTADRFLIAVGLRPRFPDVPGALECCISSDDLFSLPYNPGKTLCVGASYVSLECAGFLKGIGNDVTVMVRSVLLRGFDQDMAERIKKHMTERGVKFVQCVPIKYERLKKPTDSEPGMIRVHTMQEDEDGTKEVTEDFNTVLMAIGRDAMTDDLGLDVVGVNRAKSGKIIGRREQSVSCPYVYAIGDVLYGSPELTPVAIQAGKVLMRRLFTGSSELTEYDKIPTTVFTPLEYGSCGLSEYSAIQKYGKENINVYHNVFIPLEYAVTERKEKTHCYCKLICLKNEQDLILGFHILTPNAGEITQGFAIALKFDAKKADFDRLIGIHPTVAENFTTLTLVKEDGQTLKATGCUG

With `C[C@@H]1[C@H]2C[C@@H](C[C@H]1NC(=O)Cc1nc3ccccc3n1C1CCCCC1)C2(C)C` [Compound 10] the inhibition at 1 µM ([1]; BmTrxR, 1 µM compound, mean of 3 replicates) was 27.9%, the inhibition at 5 µM ([1]; BmTrxR, 5 µM compound, mean of 3 replicates) was 68% and the inhibition at 15 µM ([1]; BmTrxR, 15 µM compound, mean of 3 replicates) was 100%. It also gave an inhibition at 30 µM ([1]; BmTrxR, 30 µM compound, mean of 3 replicates) of 108%, an inhibition at 66.7 µM ([1]; BmTrxR, 66.7 µM compound, mean of 3 replicates) of 106% and an IC50 ([1]; read-out: BmTrxR IC50) of 2.5 µM. For the same molecule, the “Ratio GSH/GSSG” value [2] was 63.3816, the “Human GR (inhibition at 66.7 µM)” value [3] was “n.i” and the IC50 [4] was 32.9 ± 4.46 µM. For the same molecule, the inhibition at 1 µM [4] was 3.2%, the inhibition at 5 µM [4] was 6.15% and the inhibition at 15 µM [4] was 29.7%. It also gave an inhibition at 30 µM [4] of 48.5% and an inhibition at 66.7 µM [4] of 66.9%.
With `O=[N+]([O-])c1ccc2c(c1)S(=O)(=O)C=C2` [Stattic, reference compound] the “NADPH consumption by TGR after exposure” value [5] was “converted TGR to a pro-oxidant enzyme”, the “NADPH consumption (rate/ΔOD340)” value ([5]; replicates) was -0.002179 and -0.002159 and -0.002209 and the “Superoxide production, Pyrogallol red consumption monitored ΔA540” value ([6]; condition not given) was -0.005958 and -0.005844 and -0.006065. For the same molecule, the “Superoxide production, Pyrogallol red consumption monitored ΔA540” value ([6]; second of the two columns per substance (condition not given)) was -6.328e-5 and -6.968e-5 and -6.397e-5, the “reversibility of TGR inhibition” value ([7]; 250 µM inhibitor, 100-fold jump dilution) was “irreversible” and the “% Activity (ID list), D0” value [7, 8] was 1.1% and 0.9% and -0.249%. For the same molecule, the “% Inhibition (ID list), D0” value [7, 8] was 98.9% and 99.1% and 100.2%, the “% Activity (ID list), D60” value [7, 9] was -0.15% and 2.9% and 1.8% and the “% Inhibition (ID list), D60” value [7, 9] was 100.1% and 97.1% and 98.2%. The “% Activity, 0 min” value ([7]; [0, D0]: 15 min preincubation inhibitor + TGR + NADPH, diluted 1:100, then activity determined immediately, relative to DMSO) was 1.12% and 0.8821% and -0.2494%, the “% Activity, 60 min” value ([7]; [60, D60]: 15 min preincubation inhibitor + TGR + NADPH, diluted 1:100, then activity determined after 60 min, relative to DMSO) was -0.1498% and 2.864% and 1.829% and the “Inhibitor (rate), -15” value ([7]; [-15]: 15 min preincubation inhibitor + TGR + NADPH, then activity determined, raw rate, replicates) was 0.0007 and 0.0003 and -0.0004. The “% Activity, -15” value ([7]; [-15]: 15 min preincubation inhibitor + TGR + NADPH, then activity determined, relative to DMSO, replicates) was 1.077% and 0.4412% and -0.5874% and the “% Inhibition (ID list)” value ([7]; before dilution (-15), list for plotting) was 100.5% and 100.0% and 98.7%.
